Reference: patent US9480701B2, “Low anticoagulant heparins” (priority 2012, dated 2016)
“Also recorded” adds a separate entry of the source. Read-outs that look alike come from different tables or passages of the source.

Tests used:
[1] = test system: factor Xa
[2] = test system: P. falciparum-infected erythrocytes sequestered in the lungs
Protocol: Human pE were cultivated in vitro and enriched to a parasitemia above 70%. Prior to injection into the animals, human infected erythrocytes were radioactively labeled with ^99mTc. The rats were anaesthetized and the labeled pE erythrocytes were injected intravenously into the tail vein. […] The distribution of the labeled cells was monitored using a gamma camera for 30 min. The relative amount of labeled cells sequestered in the lungs was calculated by comparing the activity of excised lungs to that of the whole animal.

[3] = test system: binding of pE to endothelial cells; test: Cytoadherence blocking and disruption, dynamic incubation; assay type: cell-based, Plasmodium falciparum; conditions: for Binding of pE to endothelial cell inhibited or reversed: parasite FCR3S1.2, FIG. 7
[4] = Coagulation parameters (APTT, PT) in citrate plasma of dosed rats; assay type: in vivo, Sprague-Dawley rats
Protocol: (§1) Heparin and a LMWH preparation (Fragmin) were also studied for comparison. Basic test procedures were as follows:
Forty minutes after dosing, the rats were sacrificed by full bleeding. Citrate stabilized plasma was prepared from the blood. Plasma was stored in aliquots of 1 or 0.5 mL at −70° C. until analysis of APTT and PT.
(§2) The following compounds and doses were tested (each in groups of 8 rats) in juvenile rats of age 14±1 days: • 2. Saline: (Negative Control) • 3.

[5] = test system: merozoite invasion of erythrocytes (P. falciparum, parasite FCR3S1.2); test: Merozoite invasion inhibition assay; assay type: cell-based; conditions: for Merozoite invasion into fresh red blood cells inhibited: parasite FCR3S1.2, FIG. 8
Protocol: The merozoite invasion inhibition assay was performed with chemically modified heparin and unfractionated heparin Mature pE (trophozoite) synchronized P. falciparum cultures with a parasitemia of 0.4% and a hematocrit of 2% were grown in micro-cultures (100 ul) in the presence of increasing concentrations of chemically modified heparin or unfractionated heparin at 37° C. for 24-30 h. In order to quantify the parasitemia, the samples were stained for 10 s with acridine orange and then analyzed using a FACS instrument from Becton Dickinson. A minimum of 50,000 cells per sample were collected.

[6] = test system: rosettes of the parasite FCR3S1.2; test: Rosette disruption in vitro, parasite clone FCR3S1.2 and parasite cultures; assay type: cell-based, Plasmodium falciparum; conditions: for Disruption of rosettes: parasite FCR3S1.2, FIG. 5
[7] = molecular target: factor IIa (Homo sapiens, UniProt P00734)
[8] = Rat tail incision bleeding time after i.v. dosing; assay type: in vivo, Sprague-Dawley rats
Protocol: as §1
The incision was 9 mm long and 1 mm deep and was standardized using a template device. Blood was blotted from the incision until bleeding stopped. The time during which visible bleeding could be observed was measured, for up to 25 minutes. The longer the bleeding time, the more pronounced the anti-coagulant effects of the administered agent.
as §2

[9] = test system: rosettes of fresh isolates of children with severe, complicated or mild malaria; conditions: 100 and 1000 μg/ml, FIG. 6
[10] = test system: factor Xa; conditions: for comparison; not said whether anti-factor Xa or anti-factor IIa; cited from earlier work
[11] = rat bleeding model, normalized to unfractionated heparin = 1

## sevuparin sodium [DF02]
[1]; drug substance Batch 1
  Anticoagulant activity anti-factor Xa: 3.9 IU/mg
[1]; drug substance Batch 2
  Anticoagulant activity anti-factor Xa: 4.9 IU/mg
[1]; drug substance Batch 3
  Anticoagulant activity anti-factor Xa: 5.5 IU/mg
[2]; FIG. 9
  Sequestration of infected erythrocytes in the lungs of rats: can be inhibited
[2]; rat
  Retention of uninfected labeled human erythrocytes, co-injection versus no substance: No difference was seen
[3]; pE adhered to the endothelium before incubation, FIG. 7
  Cytoadherence disruption: reduction of binding: Up to 80%
[3]; pE and substance added simultaneously to the endothelium
  Cytoadherence blocking: binding of pE blocked compared with untreated samples: Up to 80%
[3]
  Binding of pE to endothelial cell inhibited or reversed: dose dependent manner
[4]; adult rats, i.v.
  Effect on PT: too weak to allow for comparative estimates
[4]; juvenile rats, age 14±1 days
  Effect on PT: weak
[4]; [11]
  Relative Doses (estimated equipotent relative doses), APTT: 30-40
[5]; in vitro
  Inhibitory effect on merozoite invasion compared with heparin: equal potency per mg to heparin; also recorded: equal to those of standard heparin
[5]
  Merozoite invasion into fresh red blood cells inhibited: dose dependent manner
[6]; 1000 μg/ml, with some parasites
  Disruption of rosettes at highest concentration: total or close to total disruption of rosettes
[6]
  Disruption of rosettes: dose dependent manner
[7]; drug substance Batch 1
  Anticoagulant FIIa activity: 4.6 IU/mg
[7]; drug substance Batch 2
  Anticoagulant FIIa activity: 5.0 IU/mg
[7]; drug substance Batch 3
  Anticoagulant FIIa activity: 3.8 IU/mg
[8]; adult rats, i.v.
  Anti-coagulant effect (bleeding time and coagulation parameters): low anti-coagulant effect
[8]; juvenile rats, age 14±1 days
  Anti-coagulant effect (bleeding time and coagulation parameters): low anti-coagulant effect
[8]; [11]
  Relative Doses (estimated equipotent relative doses), Bleeding time: 30-50
[9]
  Sensitivity of rosettes of fresh isolates to treatment: sensitive

## Heparin [reference compound]
[3]
  Binding of pE to endothelial cell inhibited or reversed: dose dependent manner
[4]; rat, in vivo
  Relative Doses (estimated equipotent relative doses), APTT: 1
[5]
  Merozoite invasion into fresh red blood cells inhibited: dose dependent manner
[6]
  Disruption of rosettes: dose dependent manner
[8]; rat, in vivo
  Relative Doses (estimated equipotent relative doses), Bleeding time: 1
[8]; rat, in vivo, iv
  Anti-coagulant effect (bleeding time and coagulation parameters): profound effect on all parameters
[10]
  Specific anti-coagulant activity, value corresponding to Table 5: at least 180 IU/mg
